The CheMixHub viscosity set

Assay: xn = mol fraction of the nth substance listed

CCCOC(C)=O + CCCO
viscosity [mPa·s], 101.3 kPa
Details	x2 = 0.3042	x2 = 0.5372	x2 = 0.7245	x2 = 0.8572
298.15 K	0.592	0.755	0.987	1.305
308.15 K	0.53	0.653	0.829	1.066

ClC(Cl)(Cl)Cl + CCCO
101 kPa
Details	viscosity [mPa·s]
298.15 K, x2 = 0.0685	0.89
298.15 K, x2 = 0.1	0.903
298.15 K, x2 = 0.1294	0.909
298.15 K, x2 = 0.2085	0.962
298.15 K, x2 = 0.22	0.946
298.15 K, x2 = 0.2859	1.02
298.15 K, x2 = 0.31	1.012
298.15 K, x2 = 0.39	1.089
298.15 K, x2 = 0.3964	1.113
298.15 K, x2 = 0.5849	1.317
298.15 K, x2 = 0.63	1.409
298.15 K, x2 = 0.72	1.554
298.15 K, x2 = 0.79	1.667
298.15 K, x2 = 0.8446	1.724
298.15 K, x2 = 0.8705	1.769
298.15 K, x2 = 0.8955	1.808
298.15 K, x2 = 0.91	1.88
298.15 K, x2 = 0.9511	1.877
303.15 K, x2 = 0.0615	0.8319
303.15 K, x2 = 0.0651	0.8324
303.15 K, x2 = 0.1059	0.8333
303.15 K, x2 = 0.2377	0.8752
303.15 K, x2 = 0.3576	0.9546
303.15 K, x2 = 0.4503	1.041
303.15 K, x2 = 0.5592	1.163
303.15 K, x2 = 0.6985	1.339
303.15 K, x2 = 0.7899	1.461
303.15 K, x2 = 0.8376	1.524
303.15 K, x2 = 0.8976	1.603
303.15 K, x2 = 0.9626	1.682
303.15 K, x2 = 0.9633	1.684
308.15 K, x2 = 0.0685	0.775
308.15 K, x2 = 0.1294	0.785
308.15 K, x2 = 0.2085	0.817
308.15 K, x2 = 0.2859	0.849
308.15 K, x2 = 0.3964	0.905
308.15 K, x2 = 0.5849	1.071
308.15 K, x2 = 0.8446	1.383
308.15 K, x2 = 0.8705	1.402
308.15 K, x2 = 0.8955	1.435
308.15 K, x2 = 0.9511	1.487
318.15 K, x2 = 0.0685	0.676
318.15 K, x2 = 0.1294	0.686
318.15 K, x2 = 0.2085	0.702
318.15 K, x2 = 0.2859	0.735
318.15 K, x2 = 0.3964	0.772
318.15 K, x2 = 0.5849	0.882
318.15 K, x2 = 0.8446	1.109
318.15 K, x2 = 0.8705	1.128
318.15 K, x2 = 0.8955	1.152
318.15 K, x2 = 0.9511	1.196

CCC(C)(O)CC + CCO
298.15 K, 101.33 kPa
Details	viscosity [mPa·s]
x2 = 0.1124	3.619
x2 = 0.2131	3.405
x2 = 0.299	3.345
x2 = 0.4102	3.232
x2 = 0.5116	3.007
x2 = 0.6138	2.632
x2 = 0.7104	2.203
x2 = 0.7975	1.837
x2 = 0.901	1.405
